According to patent US11136328B2, “3,3-difluoropiperidine carbamate heterocyclic compounds as NR2B NMDA receptor antagonists” (Rugen Holdings (Cayman) Limited, priority 2015, dated 2021):

Columns and labels:
rats [1] = assay: Electroconvulsive Threshold Test (ECT); format: in vivo; details: 3, 10 and 30 mpk p.o., mesylate salt
Experimental: (§1) Test compound E1-8.2 was administered as the free base.
Rats were administered ECS (rectangular current: 0.6 ms pulse width, 1.5 s duration, 200 Hz) via earclip electrodes connected to a constant current shock generator (Ugo Basile: type 7801). Test compounds were administered by oral gavage (p.o.) 1 hour before the test at a dose volume of 5 mL/kg.
Treatment groups of 20 rats were exposed to ECS as follows: The first animal was exposed to 30 mA of ECS. […] (increases of 5 mA) until the first tonic convulsion was observed. Once the first tonic convulsion was observed, the intensity of ECS was decreased by 2 mA for the next animal and then decreased or increased by 2 mA from animal to animal depending on whether the previous animal convulsed or not. If the first animal did convulse (tonic convulsions) within 5 seconds, animal no 2 is exposed to 25 mA, etc. . . . (decreases of 5 mA) until the absence of tonic convulsions was observed. At this point, the intensity of ECS was increased by 2 mA for the next animal and then decreased or increased by 2 mA from animal to animal depending on whether the previous animal convulsed or not. The minimum current intensity applied is 5 mA and the maximum 95 mA. The first 5 animals serve to approach threshold current and were not included in the analysis. The results are presented as the mean current intensity administered to the final 15 animals of a group. The test was performed blind. A positive percent change indicates an anticonvulsant effect. A negative percent change indicates a proconvulsant effect. The test substance was evaluated at 4 doses, typically using 0.5% dimethylsulfoxide, 4% hydroxypropyl-b-cyclodextrin water as a vehicle, and administered p.o. 60 minutes before ECS, and compared with a vehicle control group. Diazepam (16 mg/kg p.o.), administered under the same experimental conditions, was used as reference substance. The experiment included 6 groups. Data with the test substance was analyzed by comparing treated groups with vehicle control using one-way ANOVA followed by Dunnett's t tests.

rats [2] = assay: Pentylenetetrazole (PTZ) Seizure Test; format: in vivo; details: 10 mg/kg p.o. 30 min before PTZ 100 mg/kg s.c.
Experimental: Rats, placed in individual macrolon cages (25×19×13 cm), were injected with pentylenetetrazole (PTZ) (100 mg/kg s.c.). The occurrence and latency of clonic and tonic convulsions and death were noted over a 30 minute period. 15 rats were studied per group. The test was performed blind.
as §1
Compounds were evaluated typically using 0.5% dimethylsulfoxide, 4% hydroxypropyl-b-cyclodextrin water as a vehicle at 1 or more doses (e.g., 1, 3 and 10 mg/kg), administered p.o. 30 minutes before PTZ, and compared with a vehicle control group. Diazepam (16 mg/kg p.o.), administered 60 minutes before PTZ, was used as reference substance. The experiment was performed over 2 separate sub-experiments with N=7 to 8 animals per group and per sub-experiment. Quantitative data (latencies) with the test substance was analyzed by comparing treated groups with vehicle control using Kruskal-Wallis test followed by Mann-Whitney U test. Quantitative data with the reference substance was analyzed using Mann-Whitney U test. Quantal data (frequencies) was analyzed by comparing treated groups with vehicle control using Fisher's Exact Probability tests (*=p<0.05; **=p<0.01; ***=p<0.001).

CYP2D6 = CYP2D6 (Homo sapiens (Human), UniProt P10635); assay: CYP P450 enzyme inhibition in pooled human liver microsomes; format: in vitro ADME; details: 10 μM compound, pooled HLM
Chain of CYP2D6 (P10635 whole entry): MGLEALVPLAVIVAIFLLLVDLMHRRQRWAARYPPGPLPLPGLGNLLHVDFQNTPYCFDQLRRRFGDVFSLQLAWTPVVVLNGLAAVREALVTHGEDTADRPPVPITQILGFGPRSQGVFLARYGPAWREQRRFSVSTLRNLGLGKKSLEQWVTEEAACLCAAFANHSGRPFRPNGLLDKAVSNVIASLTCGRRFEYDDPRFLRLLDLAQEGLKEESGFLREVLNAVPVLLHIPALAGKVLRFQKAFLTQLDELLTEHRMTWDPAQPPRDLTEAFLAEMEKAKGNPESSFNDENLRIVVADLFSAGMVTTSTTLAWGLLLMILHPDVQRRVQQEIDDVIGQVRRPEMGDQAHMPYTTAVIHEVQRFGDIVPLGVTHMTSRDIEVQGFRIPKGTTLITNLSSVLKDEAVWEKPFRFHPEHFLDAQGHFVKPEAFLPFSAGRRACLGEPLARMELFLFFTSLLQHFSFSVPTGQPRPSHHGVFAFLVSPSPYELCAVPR
Experimental: Those CYP isoforms and their corresponding probe substrates are as follows: CYP1A2 (phenacetin, 30 μM), CYP2C9 (tolutamide, 100 μM), CYP2C19 (S-mephenytoin, 40 μM), CYP2D6 (dextromethorphan, 5 μM) and CYP3A4 (midazolam, 1 μM). All probe substrates were used at concentrations near or below their Kms. For experiment, a reaction mixture of test compound at 10 μM or in serial dilution, CYP probe substrate described above and 0.2 mg/mL pooled HLM in phosphate buffer, pH 7.4 in a final volume of 200 μL was pre-incubated at 37° C. for 10 minutes in triplicate. The reaction was initiated by addition of NADPH at final concentration of 1 mM. The reaction was terminated after 10 minutes (CYP1A2, CYP2D6 and CYP3A4) or 30 minutes (CYP2C9 and CYP2C19) by addition of 100 μL ice-cold acetonitrile with internal standard (IS). The samples were then centrifuged at 13,000 rpm and the supernatants were injected to LC-MS/MS (Agilent Technologies) to quantify the concentration of the specific metabolites of the probe substrates formed by individual CYP450 isoforms. The inhibition ratio is calculated as: (Mt−M0)/Mwater×100% in which Mt and M0 represent the concentrations of the specific probe substrate metabolite, which was formed by individual CYP450 isoform, at the beginning and end of the reaction in the presence of test compound; while Mwater represents the concentration of the specific metabolite at the end of the reaction in the absence of test compound. Test compound concentration-dependent response data experiments performed in triplicate.

hERG channel = hERG channel (Homo sapiens (Human), UniProt Q12809); assay: hERG channel inhibition, whole cell patch clamp; format: cell-based; details: 10 μM compound
Chain of hERG channel (Q12809 whole entry): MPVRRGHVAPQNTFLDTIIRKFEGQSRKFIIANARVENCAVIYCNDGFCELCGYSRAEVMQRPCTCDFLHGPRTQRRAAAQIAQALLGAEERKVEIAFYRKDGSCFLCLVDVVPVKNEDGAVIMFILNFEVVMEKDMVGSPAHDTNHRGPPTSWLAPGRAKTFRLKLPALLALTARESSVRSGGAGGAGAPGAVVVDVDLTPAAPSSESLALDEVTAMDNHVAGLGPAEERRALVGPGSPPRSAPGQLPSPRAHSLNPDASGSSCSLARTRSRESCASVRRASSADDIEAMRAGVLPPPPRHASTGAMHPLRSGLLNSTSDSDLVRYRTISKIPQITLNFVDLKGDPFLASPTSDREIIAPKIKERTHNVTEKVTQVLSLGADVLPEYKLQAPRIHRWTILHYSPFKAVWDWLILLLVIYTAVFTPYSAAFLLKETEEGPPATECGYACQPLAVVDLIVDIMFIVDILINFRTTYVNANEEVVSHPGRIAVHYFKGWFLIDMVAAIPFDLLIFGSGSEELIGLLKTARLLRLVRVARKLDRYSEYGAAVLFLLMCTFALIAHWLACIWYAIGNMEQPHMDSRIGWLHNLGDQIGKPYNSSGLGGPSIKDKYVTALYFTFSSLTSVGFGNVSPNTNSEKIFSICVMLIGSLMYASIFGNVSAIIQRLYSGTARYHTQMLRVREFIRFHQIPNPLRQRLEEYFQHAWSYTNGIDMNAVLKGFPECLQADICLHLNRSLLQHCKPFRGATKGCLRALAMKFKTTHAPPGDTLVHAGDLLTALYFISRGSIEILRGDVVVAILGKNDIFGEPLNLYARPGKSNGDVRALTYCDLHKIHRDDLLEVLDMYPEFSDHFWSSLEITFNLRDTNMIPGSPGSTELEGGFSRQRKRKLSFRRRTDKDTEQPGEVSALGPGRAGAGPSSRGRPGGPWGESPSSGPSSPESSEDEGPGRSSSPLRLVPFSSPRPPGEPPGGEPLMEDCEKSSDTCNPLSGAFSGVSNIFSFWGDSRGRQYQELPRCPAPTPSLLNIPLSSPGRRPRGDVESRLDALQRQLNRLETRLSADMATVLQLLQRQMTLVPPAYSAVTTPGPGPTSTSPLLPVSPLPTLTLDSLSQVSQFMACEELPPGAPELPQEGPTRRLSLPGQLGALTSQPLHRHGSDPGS
Experimental: The assay was performed on hERG channel stably expressed in HEK293 cells. The cells were cultured at 37° C. in a humidified CO2 incubator in the growth medium consisting of DMEM, 10% fetal bovine serum and antibiotics. Prior to the assay, the cells were seeded onto a 12 mm PDL-coated glass coverslip and cultured in a 35 mm Petri dish. After 16 to 40 hr culture, the cover slip was transferred into the chamber of OctaFlow perfusion system (ALA Instrument) and under a constant flow of extracellular solution (140 mM NaCl, 4 mM KCl, 1 mM MgCl2, 2 mM CaCl2, 10 mM HEPES, 10 mM D-glucose, pH 7.35, osmolarity 290). Whole cell patch clamping was performed with a glass micropipette filled with intracellular solution (120 mM KCl, 1.75 mM MgCl2, 5.4 mM CaCl2, 10 mM HEPES, 10 mM EGTA, and 4 mM ATP-K2, PH 7.2, osmolarity 310). Giga-seal was maintained during the test. The voltage control and current measurement were carried out using Axon amplifier 700B, Digidata 1440A and CLAMPEX10 software (Molecular Devices). Whole-cell hERG currents were recorded following the Petroski protocol: the cell was held at −80 mV, and the voltage step jumped from −80 to 30 mV and stay for 2 sec with a 20 ms prepulse at −40 mV. After depolarization, the voltage was decreased to −40 mV and stay for 2 sec, and returned back to −80 mV. Test compound was applied by quartz capillary tubes tip (200 μm inner diameter), and the flow rate was controlled at 2-3 ml/min with OctaFlow perfusion system. Different concentrations of the compound were applied to the cells for 5 min and the hERG current was measured three times before, during and after compound treatment. The data were analyzed using Clampfit 10 software (Molecular Devices) to generate IC50 values.

rats [3] = assay: Cortical spreading depression (CSD) migraine model; format: in vivo
Experimental: The cortical spreading depression model is utilized to investigate whether treatment with compounds of the present invention affect electrophysiological and hemodynamic events in a rat model of migraine.
Rats were anesthetized with 5% isoflurane (in 70% N2O and 30% O2; flow 300 ml/min) and placed in a stereotactic frame. […] The rectal temperature was maintained at 37.0±1.0° C. with a homeothermic blanket system. The skin was opened by a medial incision and retracted laterally. Three burr holes were drilled under saline cooling over the right hemisphere at the following coordinates (mm from bregma): (1) posterior 4.5, lateral, 2.0 (occipital cortex): KCl application site; (2) posterior 0.5, lateral 2.0 (parietal cortex): LDF recording site; (3) anterior 2, lateral 2 (frontal cortex): DC potential recording site. A laser-Doppler flow probe (Oxyflow, Oxford Optronics, UK) to monitor CBF and an invasive Ag/AgCl electrode for measuring direct current (DC) potential shifts were placed in the parietal and frontal cortex burr holes on the intact dura and in the cortex, respectively. The laser-Doppler flow probe was positioned in an area free of large pial and dural vessels to minimize a large-vessel contribution to the signal. For the DC-potential measurement, a reference electrode was fixed in the neck. Dura overlying the occipital cortex was gently removed and care was taken to avoid bleeding. After surgical preparation, the cortex was allowed to recover for 15 minutes under saline irrigation. A cotton ball (2 mm diameter) soaked with 1M KCl was placed on the pial surface and kept moist by placing 5 μl of KCl solution every 15 minutes. Test compound or vehicle was administered ten (10) minutes prior to CSD initiation. […] The number of KCl-induced CSDs was counted for 2 hours. The CBF and DC-potentials were monitored continuously starting from 5 minutes before KCl exposure.
Test compound E1-1.2 was administered as a mesylate salt (mpk based on molecular weight of the mesylate salt).
The data was collected in Windaq acquisition software (Dataq Instruments, USA) at 20 kHz. The raw data was analyzed in Clampfit program (Axon Instruments, USA). The signals were low pass filtered (cut off range 5-10000 Hz) that CSD episodes in DC and CBF could be confirmed. The following parameters were analyzed: i) the number, duration and amplitude of DC-potentials, and ii) the number and amplitude of CBF events.

rats [4] = assay: Rat formalin model; format: in vivo; details: each of 10, 30 and 60 mpk i.p., mesylate salt
Experimental: The rat formalin model is a tonic model of continuous pain resulting from formalin-induced spontaneous nociceptive behaviors. Intra-paw injection of formalin is a commonly used model to measure spontaneous nociceptive behaviors in rodents (Dubuisson, D. and Dennis, S. G. Pain 4:161, 1977). Subcutaneous plantar injection of formalin causes a bi-phasic nocifensive behavioral response in rodents. The early phase (phase-1) lasts for about 5-10 min following which an interphase occurs without any discernible nociceptive reactions after which the late phase (phase-II) nociceptive reaction ensues continuing from about 20-60 min following formalin injection. Formalin model is a model of tonic, persistent pain, and is widely used for rapid screening of novel analgesic compounds. […] In the present example, effects of test item were assessed in 0-5 minutes from the early phase (phase-I) and 20-35 minutes from the late phase (phase-II) of formalin-induced nociceptive behavior. […]
For all groups, animals were acclimated to the observation chamber for 15 minutes immediately prior to formalin injection. All animals received an intraplantar subcutaneous injection of 50 μL of 5% formalin into the left hind paw and then placed immediately into an observation chamber and formalin-evoked spontaneous nociceptive behaviors in the rats were continuously recorded for 0-60 min using a commercial camcorder. […]

rats [5] = assay: Haloperidol-induced Catalepsy (HIC) model; format: in vivo; details: 8 mg/kg p.o. 60 minutes before the test
Description: The Haloperidol-induced Catalepsy (HIC) model detects antipsychotic activity and the action of NR2B selective antagonists (Steece-Collier et al. Exp. Neurol. 163: 239, 2000) and was based on methods described by Chermat and Simon (J. Pharmacol., 6, 493-496, 1975). The capacity to induce catalepsy serves as an index of the liability of a test substance to induce extrapyramidal side-effects, in particular Parkinsonism. Antagonism of antipsychotic-induced catalepsy can thus serve to detect anti-Parkinson potential.
Rats were injected with haloperidol (1 mg/kg i.p.) and were examined for catalepsy at 30 minute intervals up to 360 minutes. Presence (+) or absence (−) of catalepsy was assessed by three procedures: 1) imposed crossing of the ipsilateral fore- and hind-limbs; 2) placing the animal in the Buddha position; 3) the tilting board, an automatic device that, 5 seconds after positioning the rat, displaces the rat from a horizontal to vertical position and back while it clings to a wire grid with its front paws. Akinesia and catalepsy were assessed depending on whether or not the animal moves before (akinesia) or during operation of the board (catalepsy). […]
Amphetamine (8 mg/kg p.o.), administered 60 minutes before the test (i.e. 90 minutes before the first measurement), was used as reference substance. […] Data with the reference substance were analyzed using Mann-Whitney U tests.

[6] = E1-1.2 at various doses, MK-801 1.25 mg/kg

| SMILES | activity on electroconvulsive threshold (rats [1]) | change in latency to death (rats [2]) | change in number of deaths vs vehicle controls (rats [2]) [%] | CYP2D6 @ 10 μM (%) (CYP2D6) | hERG @ 10 μM (%) (hERG channel) | magnitude of CBF vs vehicle (rats [3]) | number of DC potentials vs vehicle group (rats [3]; 3 mpk, 10 mpk and 30 mpk, mesylate salt) | number of CBF events vs vehicle (rats [3]; E1-1.2 at 10 mg/kg, MK-801 at 1.25 mg/kg) | amplitude of DC potentials vs vehicle (rats [3]; [6]) | duration of DC potentials vs vehicle (rats [3]; [6]) | cumulative time spent on nociceptive behavior in phase I (0-5 mins) (rats [4]) | cumulative time spent on nociceptive behavior in phase II (20-35 mins) (rats [4]) | anticataleptic activity (rats [5]) |
| --- | --- | --- | --- | --- | --- | --- | --- | --- | --- | --- | --- | --- | --- |
| Cc1ccc(COC(=O)N2CC[C@H](CNc3nccn4cnnc34)C(F)(F)C2)cc1 [Compound E1-1.2, (+)-R-4-methylbenzyl 4-(([1,2,4]triazolo[4,3-a]pyrazin-8-ylamino)methyl)-3,3-difluoropiperidine-1-carboxylate] | robust anticonvulsant activity | +35% | −91 | 14 | 17 | unchanged | significantly decreased | decreased | not statistically different compared to vehicle | not statistically different compared to vehicle | decreased | decreased | – |
| CC(N)Cc1ccccc1 (stereo not shown) [amphetamine] | – | – | – | – | – | – | – | – | – | – | – | – | showed the expected robust anticataleptic activity |
